The text below walks through data of patent publication US20060217390A1, “Cycloalkl, aryl and heteroaryl amino isothiazoles for the treatment of Hepatitis C virus” (priority 2005, published 2006).

For data set [1], the system named is HCV Con1 subgenomic replicon in Huh-7 cells (NK/luc-ubi-neo). In words: HCV replicon assay (luciferase reporter). It is filed as cell-based. Particulars: anti-HCV activity, class symbols; read-out: Range of EC50 in HCV replicon assay. The protocol: A human hepatoma cell line (Huh-7) containing replicating HCV Con1 subgenomic replicon with a luciferase reporter gene (luc-ubi-neo) was used to evaluate anti-HCV activity of the compounds. In this assay, the level of luciferase signal correlates directly with the viral RNA replication. The HCV replicon-reporter cell line (NK/luc-ubi-neo) was cultured in DMEM medium supplemented with 10% fetal bovine serum and 0.5 mg/ml Geneticin (G418). Cells were maintained in a subconfluent state to ensure high levels of HCV replicon RNA synthesis.
To evaluate the antiviral activity of compounds, serial dilutions were prepared with concentrations ranging from 0.14 to 300 μM. Diluted compounds were transferred to a 96-well plate followed by the addition of replicon cells (6000 cells per well). Cells were incubated with the compounds for 48 hours after which luciferase activity was measured.

For a further data set, the system named is Huh-7 cells. The source says: A Huh-7 cell line carrying a luciferase reporter gene (driven by a HIV LTR promoter) stably integrated into the chromosome was used to analyze the cytotoxic effect of the selected compounds. This cell line (LTR-luc) was maintained in DMEM medium with 10% FBS. Design of the cytotoxicity assay was similar to that of the HCV replicon assay.

For the next data set, the target named is T1, HCV replicase complexes (Hepatitis C virus genotype 1b, UniProt Q9WMX2).
T1 construct: viral non-structural proteins (NS3, NS4A, NS4B, NS5A and NS5B); expressed in transfected cells; host or cells: HCV subgenomic replicon cell line (I389/NS3-3)
The data set can be described thus: In vitro HCV replicase complex assay. In kind it is biochemical. Particulars: crude membrane fraction of I389/NS3-3 replicon cells. The protocol: Crude membrane fraction containing the replicase complexes (RC) was isolated from the HCV subgenomic replicon cell line (I389/NS3-3) (Lohmann et al., Science 285:110-113, 1999) through Dounce homogenization and high-speed centrifugation (Lai et al., J. Virol. 73:2295-2300). Standard assay mixtures contained 50 mM HEPES (pH 7.3), 10 mM KCl, 10 mM MgCl2, 20 units of ribonuclease inhibitor, 10 μg/ml actinomycin D, 0.5 mM of ATP, GTP, CTP, 10 μCi of [α-^33P] UTP and 0.5 μl of the membrane fraction in a total volume of 20 μl. To determine the inhibitory effect of compounds on the HCV replicase complexes, pre-incubation of the RC membrane fraction with tested compounds was performed in a reaction mixture at 4° C. for 15 minutes. The reaction was then initiated by the addition of the radiolabeled UTP and cold nucleotides and incubated at 30° C. for 1 hour. Products were extracted with phenol/chloroform, precipitated with ethanol, and separated on a 1% agarose gel. After electrophoresis, the gel was dried prior to autoradiography. Radioactivity incorporated into viral RNA was quantitated by using a Phosphorimager (Amersham Biosciences Corp., Piscataway, N.J.) and was used to determine the IC50 value. A number of the exemplary compounds were potent inhibitors that blocked viral RNA synthesis catalyzed by HCV replicase complexes, with IC50 values in the nM range (Table 2).
For orientation: Replicon systems follow genome replication, usually without infectious particles.

The mark [2] stands for this setting: read-out: Range of CC50 in cytotoxicity assay, cytotoxicity, class symbols.

By EC50 is commonly meant the concentration giving half of the maximal effect. By CC50 is commonly meant the concentration that lowers cell viability or growth by half. The term IC50 denotes the concentration that inhibits the measured activity by half. A low value points to greater potency in that assay.

Structures are written as SMILES. Where two headings read alike, the source gives them in different places. A value given as a limit tells only on which side of the number the result lay.

T1 sequence (Q9WMX2 2420-3010, one chain of several): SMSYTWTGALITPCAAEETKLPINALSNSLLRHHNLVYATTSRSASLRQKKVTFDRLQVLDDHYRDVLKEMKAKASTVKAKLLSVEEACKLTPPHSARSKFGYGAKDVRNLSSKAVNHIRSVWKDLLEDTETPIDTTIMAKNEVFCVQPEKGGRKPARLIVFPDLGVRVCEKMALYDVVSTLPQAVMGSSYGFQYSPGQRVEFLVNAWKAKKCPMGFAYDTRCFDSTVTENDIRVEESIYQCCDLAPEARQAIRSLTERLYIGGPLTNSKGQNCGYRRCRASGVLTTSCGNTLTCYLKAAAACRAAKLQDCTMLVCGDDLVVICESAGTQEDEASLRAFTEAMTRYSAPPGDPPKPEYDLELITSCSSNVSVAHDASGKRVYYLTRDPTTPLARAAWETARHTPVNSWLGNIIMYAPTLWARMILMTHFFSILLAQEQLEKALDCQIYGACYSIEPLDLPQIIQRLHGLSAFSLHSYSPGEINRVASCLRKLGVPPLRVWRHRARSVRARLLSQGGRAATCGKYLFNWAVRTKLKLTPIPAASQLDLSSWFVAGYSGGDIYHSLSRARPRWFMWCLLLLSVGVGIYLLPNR

As for `N#Cc1c(Nc2ccccc2F)s[nH]c1=O`, the EC50 in data set [1] lay in the range of 10 to 50 µM. In the data set with Huh-7 cells, this compound gave a 50% cytotoxic concentration (CC50) of over 50 µM.
Take `N#Cc1c(Nc2cc(C(F)(F)F)cc(C(F)(F)F)c2)s[nH]c1=O`: in data set [1], the EC50 fell in the range of 1 to 10 µM. Also, the CC50 with Huh-7 cells (setting [2]) was over 50 µM.
Consider `COC(=O)c1ccccc1Nc1s[nH]c(=O)c1C#N`, for which the EC50 in data set [1] was over 50 µM. In the data set with Huh-7 cells, this compound yielded a half-maximal cytotoxic concentration (CC50) of over 50 µM.
`N#Cc1c(NC23CC4CC(CC(C4)C2)C3)s[nH]c1=O`: the half-maximal effective concentration (EC50) in data set [1] was in the range of 1 to 10 µM. This compound also gave a cytotoxic concentration (CC50) with Huh-7 cells of over 50 µM.
The corresponding values for `N#Cc1c(Nc2ccc(Cl)cc2Cl)s[nH]c1=O` are 10 to 50 µM and over 50 µM.
Take `N#Cc1c(Nc2cccc(Cl)c2Cl)s[nH]c1=O`: the EC50 in data set [1] was over 50 µM. In addition, the CC50 in the data set with Huh-7 cells is over 50 µM.
As to `N#Cc1c(NCC2CCCO2)s[nH]c1=O` (stereo not drawn), the EC50 in data set [1] was over 50 µM. Moreover, the 50% cytotoxic concentration (CC50) with Huh-7 cells was over 50 µM.
For `N#Cc1c(NCC2CCCCC2)s[nH]c1=O`, the 50% effective concentration (EC50) in data set [1] fell in the range of 1 to 10 µM. In addition, in the data set on Huh-7 cells, the CC50 is over 50 µM.
The corresponding values for `N#Cc1c(Nc2ccc(I)cc2)s[nH]c1=O` are 1 to 10 µM and over 50 µM.
In the case of `N#Cc1c(Nc2ccc(I)cc2Cl)s[nH]c1=O`, the EC50 in data set [1] was 1 to 10 µM. Further, in the data set on Huh-7 cells (setting [2]), the CC50 was under 50 µM.
The matching figures for `N#Cc1c(Nc2ccc(I)c(Cl)c2)s[nH]c1=O`: under 1 µM and over 50 µM.
As for `N#Cc1c(Nc2ccc(C(=O)O)cc2)s[nH]c1=O`, the EC50 in data set [1] is over 50 µM. In the data set with Huh-7 cells, this compound registered a CC50 of over 50 µM.
With `CN(C)c1ccc(Nc2s[nH]c(=O)c2C#N)c2ccccc12`, the 50% effective concentration (EC50) in data set [1] is over 50 µM. Besides, the half-maximal cytotoxic concentration (CC50) with Huh-7 cells (setting [2]) was over 50 µM.
`N#Cc1c(O)nsc1Nc1cc(Cl)cc(Cl)c1` came in with an IC50 on HCV replicase complexes of under 0.05 µM.
Compound `N#Cc1c(O)nsc1Nc1ccc(Cl)cc1` returned a half-inhibitory concentration (IC50) against HCV replicase complexes of 0.05 to 0.1 µM.
Take `N#Cc1c(Nc2ccc(Br)cc2)s[nH]c1=O`: the IC50 on HCV replicase complexes was under 0.05 µM.
The compound `N#Cc1c(O)nsc1Nc1cc(C(F)(F)F)cc(C(F)(F)F)c1` displayed a concentration for half-maximal inhibition (IC50) against HCV replicase complexes of 0.1 to 0.25 µM.
Take `N#Cc1c(Nc2ccc(Cl)c(C(F)(F)F)c2)s[nH]c1=O` [drawing 430]: in data set [1], the EC50 fell in the range of 1 to 10 µM. Further, the CC50 in the data set with Huh-7 cells is over 50 µM.
The compound `N#Cc1c(Nc2ccc(Cl)c(C(F)(F)F)c2)s[nH]c1=O` [drawing 483] yielded an IC50 at HCV replicase complexes of 0.05 to 0.1 µM.
